The values that follow come from PMC2913153 (Journal of the American Chemical Society, 2010).

The subject of one assay is FPR-negative U937 cells. Kind of assay: Chemotaxis of FPR-negative U937 cells. Type of assay: cell-based. The following applies: result in words.
The subject of the next assay is FPR. The following applies: compared with fMLF; result in words; ref [13]; cited from earlier work.

With “N-formyl-norleucine-leucine-phenylalanine [Compound 1]”, the “chemotactic activity in FPR-negative U937 cells” value in the assay with FPR-negative U937 cells is reported as “None of the compounds induce chemotactic activity”. In the assay on FPR, the “chemoattractant potency relative to fMLF” value is “less potent than fMLF”.
